Drawing on US20150274664A1 (MERCK SHARP & DOHME CORP., priority 2012, published 2015), this text covers EC50 for twelve compounds.

SMILES strings stand for the structures.

For orientation: EC50 means the concentration giving half of the maximal effect. Low values mean higher potency in that assay, high ones lower potency in that assay.

The target in the experiment is T1, human GPR119 (Homo sapiens, UniProt Q8TDV5).
T1 construct: expressed in transfected cells; host or cells: HEK293
T1 sequence (Q8TDV5 1-335): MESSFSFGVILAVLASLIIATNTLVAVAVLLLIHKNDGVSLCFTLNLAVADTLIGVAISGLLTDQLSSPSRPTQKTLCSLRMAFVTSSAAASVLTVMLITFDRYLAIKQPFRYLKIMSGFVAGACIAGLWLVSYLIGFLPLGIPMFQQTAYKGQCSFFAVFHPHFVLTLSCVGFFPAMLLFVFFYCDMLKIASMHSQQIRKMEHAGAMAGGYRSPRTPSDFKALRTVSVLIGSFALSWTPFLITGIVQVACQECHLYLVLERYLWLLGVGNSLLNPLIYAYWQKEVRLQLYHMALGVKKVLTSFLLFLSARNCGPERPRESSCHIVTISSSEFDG
Kind of experiment: Measurement of GPR119 signaling using LANCE 384-well cAMP kit (LCMP assay). The class given is cell-based. The conditions noted are these: HEK293 cells stably transfected with human GPR119. In a few lines: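 HEK293 cells stably expressing human GPR119, in stimulation buffer at pH 7.4 with 100 μM phosphodiesterase inhibitors, exposed to a 10-point compound dilution (2.5% DMSO final) for 45 min. cAMP measured by LANCE TR-FRET at 665 nm against a cAMP standard curve, normalized between DMSO basal and an internal agonist maximum, with a 4-parameter fit.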
In general terms: In TR-FRET formats the signal depends on donor and acceptor labels being close together.
For `CCc1cnc(N2CCC([C@H]3C[C@@H]3CCOc3ccc(-n4cnnn4)cc3F)CC2)nc1` [Example 60, 5-ethyl-2-(4-((1R,2R)-2-(2-(2-fluoro-4-(1H-tetrazol-1-yl)phenoxy)ethyl)cyclopropyl)piperidin-1-yl)pyrimidine], the EC50 amounted to 17 nM.

Compound `CCc1cnc(N2CCC([C@@H]3C[C@H]3CCOc3ccc(-n4cnnn4)c(F)c3)CC2)nc1` [Example 39, 5-ethyl-2-(4-((1S,2S)-2-(2-(3-fluoro-4-(1H-tetrazol-1-yl)phenoxy)ethyl)cyclopropyl)piperidin-1-yl)pyrimidine] displayed an EC50 of 8.7 nM. This EC50 is about 2-fold lower than that of the compound before.

On to `CC(C)c1noc(N2CCC([C@H]3C[C@@H]3CCOc3cc(F)cc(F)c3CC(=O)N(C)C)CC2)n1` [Example 122, 2-(2,4-difluoro-6-(2-((1R,2R)-2-(1-(3-isopropyl-1,2,4-oxadiazol-5-yl)piperidin-4-yl)cyclopropyl)ethoxy)phenyl)-N,N-dimethylacetamide], for which it took 20 nM to reach a half-maximal effect (EC50). In the case of `CCc1cnc(N2CCC([C@H]3C[C@@H]3CCOc3cc(F)c(CC(=O)N(C)C)c(F)c3)CC2)nc1` [Example 55, 2-(4-(2-((1R,2R)-2-(1-(5-ethylpyrimidin-2-yl)piperidin-4-yl)cyclopropyl)ethoxy)-2,6-difluorophenyl)-N,N-dimethylacetamide] it was 0.34 nM; in that of `COCc1cnc(N2CCC([C@H]3C[C@@H]3CCOc3ccc(CC(=O)N4CCC4)cc3F)CC2)nc1` [Example 63, 1-(azetidin-1-yl)-2-(3-fluoro-4-(2-((1R,2R)-2-(1-(5-(methoxymethyl)pyrimidin-2-yl)piperidin-4-yl)cyclopropyl)ethoxy)phenyl)ethanone], 15 nM; in that of `CCS(=O)(=O)c1ccc(OCC[C@@H]2C[C@H]2C2CCN(c3nc(C(C)C)no3)CC2)c(F)c1` [Example 71, 5-(4-((1S,2S)-2-(2-(4-(ethylsulfonyl)-2-fluorophenoxy)ethyl)cyclopropyl)piperidin-1-yl)-3-isopropyl-1,2,4-oxadiazole], 3.8 nM. As to `CC(C)c1noc(N2CCC([C@@H]3C[C@H]3CCNc3ncc(-n4cnnn4)cn3)CC2)n1` [Example 126, N-(2-((1S,2R)-2-(1-(3-isopropyl-1,2,4-oxadiazol-5-yl)piperidin-4-yl)cyclopropyl)ethyl)-5-(1H-tetrazol-1-yl)pyrimidin-2-amine], it took 16 nM to reach a half-maximal effect (EC50). Under `COCc1noc(N2CCC([C@@H]3C[C@H]3CCOc3ccc(-n4cnnn4)cc3F)CC2)n1` [Example 89, 5-(4-((1S,2S)-2-(2-(2-fluoro-4-(1H-tetrazol-1-yl)phenoxy)ethyl)cyclopropyl)piperidin-1-yl)-3-(methoxymethyl)-1,2,4-oxadiazole] stands 23 nM; under `CCS(=O)(=O)c1ccc(OCC[C@@H]2C[C@H]2C2CCN(c3nc(C(C)C)no3)CC2)nc1` [Example 111, 5-(4-((1S ,2S)-2-(2-((5-(ethylsulfonyl)pyridin-2-yl)oxy)ethyl)cyclopropyl)piperidin-1-yl)-3-isopropyl-1,2,4-oxadiazole], 17 nM; under `CN(C)C(=O)Cc1c(F)cc(OCC[C@H]2C[C@@H]2C2CCN(C(=O)OC3(C)CC3)CC2)cc1F` [Example 104, 1-methylcyclopropyl 4-((1R,2R)-2-(2-(4-(2-(dimethylamino)-2-oxoethyl)-3,5-difluorophenoxy)ethyl)cyclopropyl)piperidine-1-carboxylate], 0.69 nM.

For the compound `CC1(OC(=O)N2CCC([C@H]3C[C@@H]3COCc3ccc(S(C)(=O)=O)cc3F)CC2)CC1` [Example 14, 1-methylcyclopropyl 4-((1R,2S)-2-((2-fluoro-4-(methylsulfonyl)benzyloxy)methyl)cyclopropyl)piperidine-1-carboxylate], it took 8.8 nM to reach a half-maximal effect (EC50). This EC50 is about 13-fold higher than that of the compound before. Take `CC1(OC(=O)N2CCC([C@H]3C[C@@H]3COCc3ccc(CC(=O)N4CCC4)cc3F)CC2)CC1` [Example 23, 1-methylcyclopropyl 4-((1R,2S)-2-((4-(2-(azetidin-1-yl)-2-oxoethyl)-2-fluorobenzyloxy)methyl)cyclopropyl)piperidine-1-carboxylate]: the EC50 is 13 nM.
